Calls of active or inactive are those of the source.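 Rule for the calls: active = maximal percent inhibition of the deubiquitinase OTUD3 of at least 30% across the tested doses; inactive = the rest.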
Each molecule was assayed against OTU domain-containing protein 3 (Homo sapiens) (UniProt Q5T2D3) (assay: Validation of screening hits, potency titration, in vitro enzymatic, OTU domain-containing protein 3 DUB inhibitors (AID 1645868)). Conditions: purified OTUD3, ubiquitin-rhodamine cleavage fluorescence, 2 h.
Chain of OTU domain-containing protein 3 (Homo sapiens) (Q5T2D3 whole entry, looked up, the tested form may be a part): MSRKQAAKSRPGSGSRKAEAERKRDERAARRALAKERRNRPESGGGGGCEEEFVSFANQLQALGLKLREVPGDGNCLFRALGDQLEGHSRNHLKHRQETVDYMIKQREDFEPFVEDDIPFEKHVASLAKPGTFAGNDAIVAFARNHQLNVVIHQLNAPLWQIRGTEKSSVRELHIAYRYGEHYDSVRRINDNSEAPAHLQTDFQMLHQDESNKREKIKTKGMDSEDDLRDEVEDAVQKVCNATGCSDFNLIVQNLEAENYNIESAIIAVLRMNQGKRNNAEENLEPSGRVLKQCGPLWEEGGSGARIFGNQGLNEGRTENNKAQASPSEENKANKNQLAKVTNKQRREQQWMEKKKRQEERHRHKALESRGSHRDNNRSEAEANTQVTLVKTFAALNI

| Structure (SMILES) | IC50 |
| --- | --- |
| COc1ccc(C)cc1NC(=O)COc1ccc2c(c1)OCO2 | > 50 µM (inactive) |
| COc1ccccc1-c1nc2c3c(C)c(C)n(-c4ccc(Br)cn4)c3ncn2n1 | > 50 µM (inactive) |
| O=C(Cn1cnc2c(oc3ccccc32)c1=O)NCc1ccccc1Cl | 36.7 µM |
| N#Cc1ccc(-c2ccc(OCC(=O)Nc3ccc4c(c3)OCO4)cc2)cc1 | > 50 µM (inactive) |
| COc1ccc(/C=C/C(=O)Nc2c3c(nc4c2CCC4)CCCC3)cc1 | 23.6 µM |
| COc1ccc(C(=O)Nc2ccc(S(=O)(=O)N3CCCCC3)cc2)cc1 | > 50 µM (inactive) |
| O=C(COc1ccc(Cl)cc1Cl)Nc1ccc2[nH]c(=O)[nH]c2c1 | 19.2 µM |
| CC(=O)c1ccc(NC(=O)CSc2nc(-c3ccccc3)nc3c2COC(C)(C)C3)cc1 | > 50 µM (inactive) |
| O=c1ncn(Cc2ccc3c(c2)OCO3)cc1-c1ncc(C(F)(F)F)cc1Cl | > 50 µM (inactive) |
| CC1CCCCN1c1nc(F)c2c(c1F)S(=O)(=O)CCN2Cc1ccccc1 (stereo unspecified) | > 50 µM (inactive) |
| Nc1nonc1C(=O)NCCNCc1cccc(OCc2ccc(Cl)cc2)c1 | > 50 µM (inactive) |
| Cn1nccc1C(=O)N1CCCCC1c1ncc(Cc2ccc(Cl)cc2)o1 (stereo unspecified) | > 50 µM (inactive) |
| Cc1ccc(S(=O)(=O)N(C)C)cc1NC(=O)Cc1ccc(Cl)c(Cl)c1 | > 50 µM (inactive) |
| Cc1noc(C)c1COc1cccc(C(=O)Nc2cc(Cl)ccc2-n2cncn2)c1 | > 50 µM (inactive) |
| CCCC(O)CCCCCCCc1cc(O)cc(O)c1C(=O)OC(CCC)CCCCCCCc1cc(O)cc(O)c1 (stereo unspecified) | 36 µM |
| O=C(Nc1ccc2c(c1)OCCO2)C1CCN(C(=O)c2cc(-c3cccnc3)n[nH]2)CC1 | > 50 µM (inactive) |
| COc1ccc(CCNC(=O)CSc2cn(CCNC(=O)c3ccc(F)cc3)c3ccccc23)cc1OC | 37.7 µM |
| C=Cc1ccc(Cn2cccc(S(=O)(=O)N3CCCC3)c2=O)cc1 | > 50 µM (inactive) |
| COc1ccc(-n2nnc(C(=O)Nc3ccccc3)c2N)cc1 | > 50 µM (inactive) |
| O=C(CN(Cc1ccc(Cl)cc1)S(=O)(=O)c1ccc(Cl)cc1)N1CCOCC1 | > 50 µM (inactive) |
| O=C(CC1C(=O)N(Cc2ccccc2)c2nc3ccccc3n21)NCCc1ccccc1 (stereo unspecified) | 19.7 µM |
| COc1ccc(-n2ccc(=O)c(-c3nc(-c4ccccc4F)no3)n2)cc1OC | > 50 µM (inactive) |
| CSc1ccccc1C(=O)Nc1nc(-c2ccncc2)cs1 | 46.3 µM |
| CCN1C[C@@H]2C[C@]2(c2ccccc2OC)C(=O)c2ncccc21 | > 50 µM (inactive) |

| Structure (SMILES) | IC50 |
| --- | --- |
| CC1OC2CC(O)C1(O)C1=C2C(O)=C(C(N)=O)C(=N)C1=O (stereo unspecified) | > 50 µM (inactive) |
| O=C(COC(=O)c1n[nH]c2ccccc12)Nc1ccc(N2CCCCC2)cc1 | 32 µM |
| CCC(=O)Nc1nc2cc(NC(=O)Nc3cc(C)cc(C)c3)ccc2s1 | 7.84 µM |
| CCOc1ccc(NC(=O)Cn2cc(C(=O)c3ccc(Cl)cc3)c(=O)c3cc(OC)ccc32)cc1 | 4.68 µM |
| O=C(Cn1c(-c2ccccc2)ncc(C(=O)NC2CC2)c1=O)Nc1ccccc1 | 25.5 µM |
| O=C(Nc1nc2c(ccc3ccccc32)s1)c1cccc(Br)c1 | 24.6 µM |
| Cc1c(-c2nsc(NC(=O)c3ccc(Cl)cc3)n2)nnn1-c1ccccc1F | 18.9 µM |
| COc1ccc(C(=O)CSc2nnc(-c3cc4cccc(OC)c4o3)n2C)cc1OC | > 50 µM (inactive) |
| COc1ccc(/C=C/c2ccnc3nc(-n4cccc4)nn23)cc1 | > 50 µM (inactive) |
| COc1cccc(-n2c(CNCc3cccnc3)nc3ccc([N+](=O)[O-])cc3c2=O)c1 | > 50 µM (inactive) |
| COc1ccc(CCNc2c(-c3ccccc3O)nc3cnccn23)cc1OC | > 50 µM (inactive) |
| Cc1cc(C)cc(-n2cnc3cc(C(=O)NCCC4=CCCCC4)ccc32)c1 | > 50 µM (inactive) |
| CC(=O)Nc1ccc(Cc2nc(-c3ccc4c(c3)nc(C)c(=O)n4C3CCCC3)no2)cc1 | > 50 µM (inactive) |
| CCC(=O)Nc1ccccc1-c1nc2ccccc2n(CC(=O)Nc2cc(OC)ccc2OC)c1=O | 19 µM |
| Cc1ccc(C)c(-n2c(N)c(C(=O)NCCc3ccccc3)c3nc4ccccc4nc32)c1 | > 50 µM (inactive) |
| CSc1nccc(-c2ccc(F)cc2)c1C#N | > 50 µM (inactive) |
| O=C(C(c1ccccc1)c1ccccc1)N1CCC(c2nc3c(nnn3Cc3c(F)cccc3Cl)c(=O)[nH]2)CC1 | 27.3 µM |
| CC(=O)Nc1ccc(S(=O)(=O)NCc2ccc(C(=O)NCCc3ccc(Cl)cc3)cc2)cc1 | 11.8 µM |
| Cc1ccc(N=Cc2sc(O)c3ccccc23)c(C)c1 | > 50 µM (inactive) |
| O=C1CN(C(=O)COC(=O)CCCN2C(=O)c3cccc4cccc(c34)C2=O)c2ccccc2N1 | > 50 µM (inactive) |
| O=C(CCCCn1c(=O)c2ccccc2n(Cc2ccccc2F)c1=O)NCCc1ccccc1 | 17 µM |
| COc1cccc(-c2cc(=O)[nH]c(Nc3nc(C)c4ccccc4n3)n2)c1 | > 50 µM (inactive) |
| Cc1cccc(NC(=O)CSc2ncnc3c2sc2nc(CC(C)C)c4c(c23)CCC4)c1 | > 50 µM (inactive) |
| Cn1c(=O)[nH]c(=O)c2c1nc1n(CCc3ccccc3)c(-c3ccccc3)cn21 | > 50 µM (inactive) |

| Structure (SMILES) | IC50 |
| --- | --- |
| COc1ccc(C(=O)CCN2CCOCC2)cc1[N+](=O)[O-] | > 50 µM (inactive) |
| CC(=O)Nc1ccc(NC(=O)c2cc(-c3cc(C)cc(C)c3O)n[nH]2)cc1 | 21.8 µM |
| C=Cc1ccc(Cn2cc(S(=O)(=O)N3CCOCC3)ccc2=O)cc1 | > 50 µM (inactive) |
| COc1ccc(C)cc1NC(=O)C1CC(=O)Nc2nc3ccccc3n21 (stereo unspecified) | 40.2 µM |
| CN(C)S(=O)(=O)N1CCCC2(C1)Nc1cccnc1NC2=NC1CCCC1 (stereo unspecified) | > 50 µM (inactive) |
| O=C(OCCCN1C(=O)c2cccc3c(N4CCCCC4)ccc(c23)C1=O)c1ccccn1 | > 50 µM (inactive) |
| COc1c2c(cc3cc(O)c4c(=O)cc(C)oc4c13)CCC2=O | > 50 µM (inactive) |
| O=c1[nH]c(C2CCN(S(=O)(=O)c3ccc(S(=O)(=O)NC4CCCCC4)cc3)CC2)nc2c1nnn2Cc1c(F)cccc1Cl | 27.9 µM |
| Cc1cccc(-c2nc3n(CC(=O)Nc4ccc(Cl)cc4)c(C)cc(=O)n3n2)c1 | 2 µM |
| Fc1cccc(Cn2cc(-c3noc(-c4ccncc4)n3)nn2)c1 | > 50 µM (inactive) |
| CC(C)N1CC2CN(Cc3ccc(Cl)cc3)CCN2Cc2ccccc21 (stereo unspecified) | > 50 µM (inactive) |
| CNC(=O)c1cc2nc(N(C)C)n(-c3ccc(F)cc3)c2s1 | > 50 µM (inactive) |
| COc1cccc2c1NC(=O)C21CCN(C(=O)Nc2cccc(C)c2)CC1 | 13.8 µM |
| Cn1c(SCCOc2ccc(Cl)cc2)nnc1-c1ccc2c(c1)OCCO2 | > 50 µM (inactive) |
| COc1ccc(C2/C(=C(\O)c3ccccc3)C(=O)C(=O)N2c2nc3ccc(F)cc3s2)cc1 (stereo unspecified) | 33.8 µM |
| Cc1ccc(NC(=O)c2cnc3c(c2)c(=O)n(C)c(=O)n3C)cc1 | 20 µM |
| CCC(=O)N1c2ccccc2NC2=C(C(=O)CC(c3ccccc3OCc3ccccc3)C2)C1c1ccccc1 (stereo unspecified) | 12.2 µM |
| CC(C)CCN1C(=O)C2C(C(=O)Nc3ccc(Oc4ccccc4)cc3)C3C=CC2(O3)C1C(=O)NC1CCCCC1 (stereo unspecified) | 30.7 µM |
| CCOc1ccccc1C(=O)NCC(=O)OC(C(=O)c1c[nH]c2ccccc12)c1ccccc1 (stereo unspecified) | > 50 µM (inactive) |
| CCOc1ccc(NC(=O)COc2cccc(-n3cnnn3)c2)cc1 | > 50 µM (inactive) |
| CCn1ccc2c(cc(C(=O)Nc3ccccc3F)n2C)c1=O | > 50 µM (inactive) |
| Cc1nc(NCc2ccccn2)c2cc(-c3ccccc3)sc2n1 | 45.3 µM |
| COc1ccc(NC(=O)CC(=O)c2ccc([N+](=O)[O-])cc2)cc1S(=O)(=O)Nc1ccc(Br)cc1 | 28.7 µM |
| COCCCN1CCS(=O)(=O)c2c(Cl)c(F)nc(Oc3ccccc3F)c21 | > 50 µM (inactive) |

| Structure (SMILES) | IC50 |
| --- | --- |
| O=C(COc1nsnc1N1CCOCC1)Nc1ccccc1F | > 50 µM (inactive) |
| CCCCn1c(=O)c(CCC(=O)OCC(=O)Nc2ccc3c(c2)OCCO3)nc2ccccc21 | > 50 µM (inactive) |
| COc1cccc(NC(=O)CSc2nnc(-c3cc4cccc(OC)c4o3)n2C)c1 | 35.9 µM |
| CCOC(=O)c1cc2c(ccn2C)n1CC(=O)N1CCc2ccccc2C1 | > 50 µM (inactive) |
| COc1cccc(NC(=O)c2ccc(F)cc2Cl)c1 | > 50 µM (inactive) |
| O=C(/C=C/c1c(F)cccc1Cl)N1CCc2ccccc2C1 | > 50 µM (inactive) |
| N#C/C(=C/c1sc(N2CCOCC2)nc1-c1ccccc1)c1ccccn1 | > 50 µM (inactive) |
| COc1ccccc1OCC(=O)Nc1ccc2c(c1)CCC(=O)N2Cc1ccccc1 | > 50 µM (inactive) |
| Cc1cc(C(=O)Nc2ccc3nc(N4CCN(c5ncccn5)CC4)cc(C)c3c2)ccc1[N+](=O)[O-] | > 50 µM (inactive) |
| O=C(c1cc2ccccc2o1)N1CC=C(c2ccccc2)CC1 | > 50 µM (inactive) |
| O=C(Nc1ccc2c(c1)OCCO2)c1cc(CN2CCOCC2)on1 | > 50 µM (inactive) |
| COc1ccc2nc(-c3ccc(NC(=O)c4cccc(OC)c4OC)cc3)cn2n1 | > 50 µM (inactive) |
| CCn1c(SCc2cccc(C)c2)nnc1-c1cnccn1 | > 50 µM (inactive) |
| Cc1ccc2cc(CCNC(=O)c3cccc(Br)c3)c(=O)[nH]c2c1 | > 50 µM (inactive) |
| O=C(CSc1nnc(Cn2cnc3ccccc32)o1)Nc1ccc([N+](=O)[O-])cc1 | 20.2 µM |
| O=C(Nc1ccc2c(c1)OCO2)C1CCN(Cc2nc3ccccc3s2)CC1 | > 50 µM (inactive) |
| CC(C)N1CC2CN(C(=O)c3ccccc3)CCN2Cc2ccccc21 (stereo unspecified) | > 50 µM (inactive) |
| O=C(NCCN1CCCC1)C1CCN(c2cnc(N3CCCCC3)nc2)CC1 | > 50 µM (inactive) |
| Cn1c(=O)/c(=C/c2ccccc2)[nH]c(=O)/c1=C/c1ccccc1 | 22.4 µM |
| COc1ccc(-c2[nH]c3ccccc3c2SCCNC(=O)c2ccc(S(=O)(=O)N3CCOCC3)cc2)cc1 | > 50 µM (inactive) |
| O=C1C[C@@H](O)[C@H](O)[C@@]23O[C@@]12C1(Oc2cccc4cccc(c24)O1)[C@@H]1O[C@@H]1[C@@H]3O | 41.3 µM |
| COc1ccc(-c2nc3n(n2)C(CC(=O)Nc2cccc4ccccc24)C(=O)N3)cc1 (stereo unspecified) | 13 µM |
| Cc1sc(NC(=O)/C=C/c2ccco2)nc1-c1ccccc1 | > 50 µM (inactive) |
| O=C(NC1CCN(Cc2ccccc2)CC1)c1[nH]nc2c1COc1ccccc1-2 | > 50 µM (inactive) |
